Test results reported in patent publication US20260041706A1, “MUCUS MEMBRANE FORMULATIONS AND USES THEREOF” (priority 2022, published 2026).
“And” between values parts separate entries of the source, which are not always exact repeats. Equal values may be shown once. Read-outs that look alike come from different tables or passages of the source.

Legend:
[1] = test system: human nasal epithelial cell (RPMI-2650)-based monolayer
[2] = for fluorescence intensity (droplet capture) relative to mucus or biopolymer mixture without surfactant: surfactant 0.05% w/V in gellan (0.2% w/v) and pectin (0.75% w/v) mixture
[3] = mouse, in vivo
Text: (§1) To test our hypothesis, we compared nasal residence time of DiR-loaded mixture of gellan and pectin without or with surfactants.
(§2) In vivo biodistribution and nasal residence. Nasal residence time of the formulation was determine in mice. […] Mice were euthanized at different time points and nasal cavity was harvested and imaged using IVIS (Bruker's In-Vivo Xtreme optical and x-ray in vivo imaging system) at an excitation and emission wavelength of 680/700 nm. Vital organs such as lung, liver, spleen, kidney, and heart, were also imaged at 2 and 24 h time points. To determine the mechanism of long residence time, animals were intranasally instilled with DiR-mixed gellan (0.02% w/v) and pectin (0.75% w/v) mixture without or with BKC and tween-80. After 8 h, animals were euthanized to harvest and image the nasal cavity using Perkin Elmer IVIS Lumina II and the total flux was expressed in (p/sec/m^2/sr).

[4] = test system: HKx31 Influenza A virus (H3N2); test: In vitro neutralization assay with Influenza A (plaque assay in MDCK cells); type: cell-based; settings: 10 or 60 min incubation; agent evaluated individually
Klebsiella pneumoniae = test: In vitro neutralization assay with bacteria (CFU), K. pneumoniae; type: cell-based; settings: incubation time of 30 min
Experimental: (§3) Neutralization was determined by measuring the bactericidal activity. Each agent was individually incubated with either E. coli or K. pneumoniae for 30 or 60 min, followed by 1-minute centrifugation, and then evaluating the bacterial load in the supernatant using a colony-forming assay.
(§4) An overnight culture of bacteria was prepared in 5 mL tryptic soy broth (TSB, Sigma Aldrich) media. On the day of the experiment, bacteria suspension was adjusted to obtain an OD600 nm=0.2, which corresponds to 10^8 CFU/mL. […] After incubation, the sample/bacteria mixture was 10-fold serially diluted in 1×PBS, and 10 mL of each dilution was plated onto pre-poured LB (Luria Broth, HiMedia Laboratories Pvt Ltd) agar plates followed by an incubation of 16-18 h at 37° C., 5% CO2. The plates were then counted for CFUs.

[5] = test system: Escherichia coli (E. coli); test: In vitro neutralization assay with bacteria (CFU), E. coli; type: cell-based; settings: incubation time of 30 min
Experimental: as §3, §4

SARS-CoV-2 mNG = test: In vitro neutralization assay with SARS-CoV-2 (focus-forming assay in Vero E6 cells); type: cell-based
RPMI 2650 cells = settings: 0.5% w/v; 24 or 48 h incubation
[6] = In vivo biodistribution and nasal residence (DiR fluorescence, IVIS); settings: 8 h post-nasal administration, DiR-loaded
Text: as §1, §2

Row | Substance | change in TEER (in words) ([1]; Triton-X 0.1% w/v, negative control) | capture of respiratory droplets (in words) ([2]; BKC at 0.01% w/v) | fluorescence intensity (droplet capture) relative to mucus or biopolymer mixture without surfactant [2] [fold] | surfactant concentration above which fluorescence intensity (droplet capture) increased significantly ([2]; surfactant combined with gellan/pectin mixture, vs mucus or only biopolymer mixture) | nasal residence of gellan and pectin mixture on addition of surfactant [3] | reduction in IAV viral titer in host cells in comparison to PBS [4] [log fold] | reduction in colony-forming units (CFU) of Klebsiella pneumoniae (Klebsiella pneumoniae) [log fold] | reduction in colony-forming units (CFU) of E. coli [5] [log fold] | minimum concentration required to achieve >4-log fold (>99.99%) reduction in SARS-CoV-2 viral load (SARS-CoV-2 mNG) [% w/v] | reduction in SARS-CoV-2 viral load in host cells (SARS-CoV-2 mNG; 10 or 60 min incubation, agent evaluated individually) | neutralization efficiency of BKC against SARS-CoV-2 in presence of gellan or pectin (SARS-CoV-2 mNG; BKC 0.01% w/v, gellan 0.2% w/v or pectin 0.75% w/v, 10 min) | metabolic activity of RPMI-2650 cells (RPMI 2650 cells) | nasal residence of gellan and pectin mixture on addition of surfactant [6] | transient dip in TEER immediately after addition ([1]; irrespective of the concentrations evaluated) | time for TEER to reverse to original value after replacing with fresh medium ([1]; medium replaced at 4 h)
1 | Triton X-100 [Triton-X, reference compound] | permanent change in the TEER |  |  |  |  |  |  |  |  |  |  |  |  |  | 
2 | benzalkonium chloride [BKC] |  | didn't increase the capture of respiratory droplets | 4 | higher than 0.01 % w/v | significantly enhanced the nasal residence | 1 | 7 | 4 | 0.01 | 5 log fold and > 99.99% | not impacted |  |  |  | 
3 | polyoxyethylene 20 sorbitan monooleate [Tween-80] |  |  | 4 |  |  | 1 |  |  |  |  |  | significant reduction in the metabolic activity | significantly enhanced the nasal residence | less than 15% | less than 1 h
